Like-named read-outs stand apart in the source and are kept apart here.
Key:
[1] = Metabolism rate, pmol/min/mg at 1 μM, rat female; format: in vitro ADME; details: 1 μM compound
[2] = Metabolism rate, pmol/min/mg at 1 μM, human; format: in vitro ADME; details: 1 μM compound
[3] = Pharmacokinetic studies / bioavailability in rats; format: in vivo, rat; details: for Cmax / Tmax / half-life: rat, plasma; for Cmax / Tmax: po, p.o. 10 mg/kg; for Cmax / Tmax / Fp.o.: 5 mg/ml solution in 10% DMSO 10% cremophor 80% saline
[4] = Metabolism rate, pmol/min/mg at 1 μM, rat male; format: in vitro ADME; details: 1 μM compound
rat GnRH receptor = biological target: T1, rat GnRH receptor (Rattus norvegicus, UniProt P30969); test: Radioligand binding, 125I-GnRH-A, rat pituitary membranes; parameters: membranes were prepared from rat pituitary; from tissue; host or cells: rat pituitary
T1 sequence (P30969 1-327): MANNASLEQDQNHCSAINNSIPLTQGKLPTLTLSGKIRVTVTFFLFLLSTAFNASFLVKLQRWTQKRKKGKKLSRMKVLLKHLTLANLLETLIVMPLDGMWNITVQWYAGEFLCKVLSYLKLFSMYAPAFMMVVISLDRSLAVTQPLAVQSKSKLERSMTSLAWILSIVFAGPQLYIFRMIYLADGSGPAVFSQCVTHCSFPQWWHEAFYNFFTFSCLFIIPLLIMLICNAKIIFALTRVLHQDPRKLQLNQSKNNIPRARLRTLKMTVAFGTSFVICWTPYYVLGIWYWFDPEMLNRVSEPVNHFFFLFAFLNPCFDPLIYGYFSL
Method in brief: (§1)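 Bound label captured on 0.1% polyethyleneimine-treated GF/C filters, washed three times with PBS, counted. IC50 derived; identical set-up for every species.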

mouse GnRH receptor = biological target: T2, mouse GnRH receptor (Mus musculus, UniProt Q01776); test: Radioligand binding, 125I-GnRH-A, 293 cells expressing mouse GnRH receptors
T2 construct: expressed in transfected cells; host or cells: 293 cells
T2 sequence (Q01776 1-327): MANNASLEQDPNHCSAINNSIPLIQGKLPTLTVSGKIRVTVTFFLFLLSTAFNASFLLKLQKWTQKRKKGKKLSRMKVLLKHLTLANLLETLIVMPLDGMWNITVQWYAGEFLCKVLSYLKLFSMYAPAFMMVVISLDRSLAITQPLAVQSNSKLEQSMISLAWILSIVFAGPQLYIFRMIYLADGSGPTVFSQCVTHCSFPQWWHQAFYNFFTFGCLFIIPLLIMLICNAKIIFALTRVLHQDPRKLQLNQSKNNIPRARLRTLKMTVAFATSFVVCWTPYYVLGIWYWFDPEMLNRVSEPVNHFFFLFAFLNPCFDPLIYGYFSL
Method in brief: as §1

human GnRH receptor = biological target: T3, human GnRH receptor (Homo sapiens, UniProt P30968); test: Radioligand binding, 125I-GnRH-A displacement, membranes of HEK 293 cells with human GnRH receptor
T3 construct: expressed in transfected cells; host or cells: HEK 293 (hGnRH-R/293, from Dr. Stuart Sealfon)
T3 sequence (P30968 1-328): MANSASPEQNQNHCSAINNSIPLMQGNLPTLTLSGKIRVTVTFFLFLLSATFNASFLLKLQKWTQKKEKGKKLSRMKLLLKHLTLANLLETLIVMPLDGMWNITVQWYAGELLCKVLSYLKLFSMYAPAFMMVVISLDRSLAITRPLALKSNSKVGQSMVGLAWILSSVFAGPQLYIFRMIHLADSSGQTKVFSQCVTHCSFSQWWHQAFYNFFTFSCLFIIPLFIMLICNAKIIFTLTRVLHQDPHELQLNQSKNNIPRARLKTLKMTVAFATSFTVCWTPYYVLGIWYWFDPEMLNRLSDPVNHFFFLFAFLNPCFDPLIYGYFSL
Method in brief: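 After filtration and PBS washes, bound radioactivity was counted by scintillation and IC50 derived. Identical conditions applied for non-human receptors.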

bovine GnRH receptor = biological target: T4, bovine GnRH receptor (Bos taurus, UniProt P32236); test: Radioligand binding, 125I-GnRH-A, bovine pituitary membranes
T4 construct: membranes were prepared from bovine pituitary; from tissue; host or cells: bovine pituitary
T4 sequence (P32236 1-328): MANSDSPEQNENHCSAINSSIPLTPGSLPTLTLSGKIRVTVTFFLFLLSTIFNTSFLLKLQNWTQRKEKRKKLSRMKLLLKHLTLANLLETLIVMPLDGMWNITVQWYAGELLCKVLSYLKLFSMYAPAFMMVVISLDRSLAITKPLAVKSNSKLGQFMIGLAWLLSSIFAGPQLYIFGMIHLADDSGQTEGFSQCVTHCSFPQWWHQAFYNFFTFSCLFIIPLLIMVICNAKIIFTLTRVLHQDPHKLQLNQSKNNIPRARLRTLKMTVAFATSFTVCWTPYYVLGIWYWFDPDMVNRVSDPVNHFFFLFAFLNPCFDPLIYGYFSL
Protocol: All compounds were diluted in 1% DMSO (final assay concentration) in binding assay buffer. […] Reactions were terminated by rapid filtration onto 96-well Packard GF/C filters soaked in 0.1% polyethyleneimine. Filters were washed three times with PBS buffer, dried and counted on a Packard Topcount by liquid scintillation counting.
Assay conditions were identical for assessing compound activities at other species. […] IC50 values for control peptides and test compounds were calculated utilizing GraphPad Prism™ software.
The reaction mixture was vortexed and incubated for 1 min at room temperature. After one min, the mixture was vortexed and allowed to incubate for an additional minute. 2 ml of 0.5 M acetic acid/1% BSA was added to the reaction tube and the mixture was added to a C18 Sep-Pak cartridge. The cartridge was washed with subsequent washes of 5 ml H2O and 5 ml 0.5M acetic acid and then eluted with 5×1 ml of 60% CH3CN/40% 0.5M acetic acid. The eluate was diluted with 3× volume of HPLC buffer A (0.1% TFA in H2O) and loaded onto a C18 column. […] The radioactive fractions (750 ed/fraction) are collected into clean polypropylene tubes containing 100 μl of 10% BSA. Fractions were assessed for biological activity by radioligand binding.

[5] = second value marked * (mostly in parentheses), asterisk not explained, read-out: hGnRH IC50, value marked *
[6] = means ± SE of at least three experiments performed in duplicate, read-out: Rat IC50
[7] = means ± SE of at least three experiments performed in duplicate, read-out: Mouse IC50
[8] = means ± SE of at least three experiments performed in duplicate, read-out: Human IC50
[9] = means ± SE of at least three experiments performed in duplicate, read-out: Bovine IC50

Rat female pmol/min/mg 1 μM [1] [pmol/min/mg]	Human pmol/min/mg 1 μM [2] [pmol/min/mg]	Cmax ([3]; female, 10 mg/kg, rat female) [nM]	Tmax ([3]; female, 10 mg/kg, rat female) [h]	half-life ([3]; female, rat female) [h]	Fp.o. ([3]; rat female)	Rat male pmol/min/mg 1 μM [4] [pmol/min/mg]	IC50 (rat GnRH receptor; read-out: rGnRH IC50) [nM]	IC50 (mouse GnRH receptor; read-out: mGnRH IC50) [nM]	IC50 (human GnRH receptor; read-out: hGnRH IC50) [nM]	half-life ([3]; male, iv, 10 mg/kg, rat male) [h]	IC50 (human GnRH receptor; [5]) [nM]	IC50 (bovine GnRH receptor; read-out: bGnRH IC50) [nM]	IC50 (rat GnRH receptor; [6]) [nM]	IC50 (mouse GnRH receptor; [7]) [nM]	IC50 (human GnRH receptor; [8]) [nM]	IC50 (bovine GnRH receptor; [9]) [nM]	Structure (SMILES)
430	322	50	1	1.6	1% (10 mg/kg)^10	3282	12	62	80	–	–	–	–	–	–	–	Cc1ccc(C(C)(C)C)cc1Cc1ccc(C(=O)NCc2cccc(CNc3ccnc(NC[C@H]4CCCO4)n3)c2)o1 [Compound 212]
–	361	–	–	–	–	1387	100	280	75	0.967	65	1780	–	–	–	–	COc1ccc(CNC(=O)c2ccc(Cc3cc4c(cc3C)C(C)(C)CCC4(C)C)o2)cc1 [Compound 42]
330	450	340	1	1.1	24% (10 mg/kg)^10	2180	1510	850	174	–	–	–	–	–	–	–	COc1cccc(OC)c1NC(=O)c1ccc(Cc2c(C)c(C)cc(C)c2C)o1 [Compound 225]
227	641	70	0.5	2.4	2% (10 mg/kg)^10	320	57	14	27	–	–	–	–	–	–	–	COc1cc(NS(C)(=O)=O)c(NC(=O)c2ccc(Cc3cc4c(cc3C)C(C)(C)CCC4(C)C)o2)c(OC)c1 [Compound 228]
–	392	–	–	–	–	3412	70	220	100	2.6	–	1000	–	–	–	–	COc1ccc(CNC(=O)c2ccc(Cc3cc4c(cc3C)C(C)(C)CCC4(C)C)o2)c(OC)c1 [Compound 56]
–	392	–	–	–	–	1877	120	400	150	–	–	1930	–	–	–	–	Cc1cc2c(cc1Cc1ccc(C(=O)NCc3ccccc3Cl)o1)C(C)(C)CCC2(C)C [Compound 51]
–	278	–	–	–	–	4226	84	85	130	–	–	1440	–	–	–	–	COC(=O)c1ccc(OC)c(NC(=O)c2ccc(Cc3cc4c(cc3C)C(C)(C)CCC4(C)C)o2)c1 [Compound 72]
–	392	–	–	–	–	2198	130	240	230	1.5	80	1920	–	–	–	–	Cc1cc2c(cc1Cc1ccc(C(=O)NCCOc3ccccc3)o1)C(C)(C)CCC2(C)C [Compound 47]
182	594	230	1	7.9	1% (10 mg/kg)^10	–	400	360	200	–	–	–	–	–	–	–	Cc1cc2c(cc1Cc1ccc(C(=O)NCc3ccc(CNc4ncccn4)cc3)o1)C(C)(C)CCC2(C)C [Compound 137]
159	157	2810	1	1.6	41% (10 mg/kg)^10	1236	–	–	200	–	–	–	–	–	–	–	Cc1ccc(C(C)(C)C)cc1Cc1ccc(C(=O)Nc2ccc3[nH]ccc3c2)o1 [Compound 207]
–	485	–	–	–	–	1781	900	1880	–	0.917	330	8700	–	–	–	–	Cc1cc2c(cc1Cc1ccc(C(=O)NCc3ccccc3F)o1)C(C)(C)CCC2(C)C [Compound 46]
–	459	–	–	–	–	1759	510	610	390	0.917	120	4440	–	–	–	–	Cc1cc2c(cc1Cc1ccc(C(=O)NCc3cccs3)o1)C(C)(C)CCC2(C)C [Compound 44]
–	–	–	–	–	–	–	30	80	80	2.2	–	–	30 ± 4	80 ± 20	80 ± 20	670 ± 120	Cc1cc2c(cc1Cc1ccc(C(=O)NCc3cccc(C)c3C)o1)C(C)(C)CCC2(C)C [Compound 17]
–	–	–	–	–	–	–	560	1290	30	0.667	–	–	560 ± 50	1290 ± 210	30 ± 6	4380 ± 510	Cc1cc2c(cc1Cc1ccc(C(=O)NCC3CCC(C#N)CC3)o1)C(C)(C)CCC2(C)C (centres unmarked) [Compound 16]
–	185	–	–	–	–	1606	210	490	140	–	–	1400	–	–	–	–	Cc1cccc(CNC(=O)c2ccc(Cc3cc4c(cc3C)C(C)(C)CCC4(C)C)o2)c1 [Compound 41]
205	750	–	–	–	–	5978	35	14	18	–	–	–	–	–	–	–	CCOc1cccc(OCC)c1NC(=O)c1ccc(Cc2cc3c(cc2C)C(C)(C)CCC3(C)C)o1 [Compound 194]

From patent US7101878B1 (Agouron Pharmaceuticals, Inc., priority 1998, dated 2006)
